# Results taken from PubChem BioAssay AID330 (DTP/NCI, 2004).
# Values joined by “and” are separate entries in the source; they are usually repeats but may differ in a detail not shown here. Equal values may be shown once. Toxic doses and inconclusive results are not listed. Peptide text beside a SMILES is read from it. * marks the point of attachment. Cbz = O=C(OCc1ccccc1)*
# System: P388 leukemia ip, CD2F1 mice, survival T/C
# Experiment: NCI In Vivo Anticancer Drug Screen. Data for tumor model P388 Leukemia (intraperitoneal) in CD2F1 (CDF1) mice
# Conditions: endpoint: median survival time, higher = longer survival
# Summary of the method: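 Mice carrying the transplanted tumor received test compound or vehicle. Survival was recorded in each group, and the value is the treated-group measurement divided by that of the vehicle-treated control group.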
# [1] = dose: 60.0 mg/kg/injection, schedule: Q01DX005 (ip), vehicle: saline with Tween-80
# [2] = dose: 120.0 mg/kg/injection, schedule: Q01DX005 (ip), vehicle: saline with Tween-80
# [3] = dose: 50.0 mg/kg/injection, schedule: Q01DX009 (ip), vehicle: Klucel (hydroxypropylcellulose) (HPC)
# [4] = dose: 100.0 mg/kg/injection, schedule: Q01DX009 (ip), vehicle: Klucel (hydroxypropylcellulose) (HPC)
# [5] = dose: 200.0 mg/kg/injection, schedule: Q01DX009 (ip), vehicle: Klucel (hydroxypropylcellulose) (HPC)
# [6] = dose: 25.0 mg/kg/injection, schedule: Q01DX009 (ip), vehicle: other
# [7] = dose: 50.0 mg/kg/injection, schedule: Q01DX009 (ip), vehicle: saline with Tween-80
# [8] = dose: 6.25 mg/kg/injection, schedule: Q01DX009 (ip), vehicle: Klucel (hydroxypropylcellulose) (HPC)
# [9] = dose: 12.5 mg/kg/injection, schedule: Q01DX009 (ip), vehicle: Klucel (hydroxypropylcellulose) (HPC)
# [10] = dose: 240.0 mg/kg/injection, schedule: Q01DX005 (ip), vehicle: saline with Tween-80
# [11] = dose: 50.0 mg/kg/injection, schedule: Q01DX005 (ip), vehicle: saline with Tween-80
# [12] = dose: 100.0 mg/kg/injection, schedule: Q01DX005 (ip), vehicle: saline with Tween-80
# [13] = dose: 200.0 mg/kg/injection, schedule: Q01DX005 (ip), vehicle: saline with Tween-80
smiles,measurement,setting,value
C/C=C1\NC(=O)c2csc(n2)C(C(C)C)NC(=O)c2csc(n2)/C(=C/C)NC(=O)C(C(C)O)NC(=O)c2csc(n2)-c2ccc(-c3nc(-c4nc(C(=O)NC(C(=O)NCC(C)O)C(C)O)cs4)cs3)nc2-c2csc1n2 (stereo unspecified),T/C,"dose: 0.25 mg/kg/injection, schedule: Q01DX009 (ip), vehicle: Klucel (hydroxypropylcellulose) (HPC)",107 % of control
same,T/C,"dose: 0.5 mg/kg/injection, schedule: Q01DX009 (ip), vehicle: Klucel (hydroxypropylcellulose) (HPC)",112 % of control
same,T/C,"dose: 1.0 mg/kg/injection, schedule: Q01DX009 (ip), vehicle: Klucel (hydroxypropylcellulose) (HPC)",104 % of control
same,T/C,"dose: 2.0 mg/kg/injection, schedule: Q01DX009 (ip), vehicle: Klucel (hydroxypropylcellulose) (HPC)",103 % of control
O=C(O)c1ccc(NC(=S)NC(=O)c2cccc(Br)c2)cc1,T/C,[1],91 % of control
same,T/C,[2],86 % of control
CCNC(=S)N/N=C(/c1ccccc1)c1ccccn1,T/C,[3],105 % of control
same,T/C,[4],95 % of control
same,T/C,[5],115 % of control
O=C(NNS(=O)(=O)CCC(NC(=O)OCc1ccccc1)C(=O)OCc1ccccc1)OCc1ccccc1 (stereo unspecified),T/C,"dose: 12.5 mg/kg/injection, schedule: Q01DX009 (ip), vehicle: other",110 % of control
same,T/C,[6],102 % of control
same,T/C,"dose: 50.0 mg/kg/injection, schedule: Q01DX009 (ip), vehicle: other",96 % of control
same,T/C,"dose: 100.0 mg/kg/injection, schedule: Q01DX009 (ip), vehicle: other",96 % of control
COC(=O)CCC1=C(OC)C(=O)C(OC)=CC1=O,T/C,[7],112 % of control
same,T/C,"dose: 100.0 mg/kg/injection, schedule: Q01DX009 (ip), vehicle: saline with Tween-80",100 % of control
C1=CCC23CCCCC2(C1)CN(/N=N/N1CC24CC=CCC2(CCCC4)C1)C3 (stereo unspecified),T/C,[8],87 % of control
same,T/C,[9],86 % of control
CCc1c(O)c(C#N)c2[nH]c3cc(C)c(C)cc3n2c1=O,T/C,[1],100 % of control
same,T/C,[2],102 % of control
same,T/C,[10],99 % of control
COC(=O)C1=NOC2C(=O)N(c3ccccc3)C(=O)C12 (stereo unspecified),T/C,[11],96 % of control
same,T/C,[12],101 % of control
O=C(c1ccccc1)N1CCCSC1=S,T/C,[1],101 % of control
same,T/C,[2],105 % of control
same,T/C,[10],104 % of control
CC(CO)(CO)N1C(=O)c2cccc3cc([N+](=O)[O-])cc(c23)C1=O,T/C,[11],114 % of control
same,T/C,[12],105 % of control
same,T/C,[13],107 % of control
O=C1COCC(=O)OCCOCCSCCOCCO1,T/C,"dose: 100.0 mg/kg/injection, schedule: Q04DX003 (ip), vehicle: Klucel (hydroxypropylcellulose) (HPC)",102 % of control
same,T/C,"dose: 200.0 mg/kg/injection, schedule: Q04DX003 (ip), vehicle: Klucel (hydroxypropylcellulose) (HPC)",102 % of control
same,T/C,"dose: 400.0 mg/kg/injection, schedule: Q04DX003 (ip), vehicle: Klucel (hydroxypropylcellulose) (HPC)",100 % of control
CCc1c[nH]c(C=O)c1CC,T/C,[1],100 % of control
same,T/C,[2],100 % of control
same,T/C,[10],99 % of control
Cc1cc(N)c2ccccc2c1O,T/C,"dose: 12.5 mg/kg/injection, schedule: Q01DX009 (ip), vehicle: saline with Tween-80",110 % of control
same,T/C,"dose: 25.0 mg/kg/injection, schedule: Q01DX009 (ip), vehicle: saline with Tween-80",124 % of control
same,T/C,[7],108 % of control
O=[N+]([O-])/C=C/c1ccccc1Cl,T/C,"dose: 10.0 mg/kg/injection, schedule: Q01DX009 (ip), vehicle: other",115 % of control
same,T/C,"dose: 30.0 mg/kg/injection, schedule: Q04DX003 (ip), vehicle: other",118 % of control
Brc1ccc2[nH]c3nc(N/N=C/c4cccs4)nnc3c2c1,T/C,"dose: 100.0 mg/kg/injection, schedule: Q04DX002 (ip), vehicle: saline with Tween-80",90 % of control
same,T/C,"dose: 200.0 mg/kg/injection, schedule: Q04DX002 (ip), vehicle: saline with Tween-80",99 % of control
same,T/C,"dose: 400.0 mg/kg/injection, schedule: Q04DX002 (ip), vehicle: saline with Tween-80",106 % of control
CCCCCCCCCCCCCCCC(=O)N(C(C)CCCN(CC)CC)C(C)CCCN(CC)CC (stereo unspecified),T/C,"dose: 1.56 mg/kg/injection, schedule: Q01DX009 (ip), vehicle: water",98 % of control
same,T/C,"dose: 3.13 mg/kg/injection, schedule: Q01DX009 (ip), vehicle: water",100 % of control
same,T/C,"dose: 6.25 mg/kg/injection, schedule: Q01DX009 (ip), vehicle: water",99 % of control
same,T/C,"dose: 12.5 mg/kg/injection, schedule: Q01DX009 (ip), vehicle: water",92 % of control
CC1CC[P+](c2ccccc2)(c2ccccc2)c2c1ccc1ccccc21 (stereo unspecified),T/C,"dose: 6.25 mg/kg/injection, schedule: Q04DX002 (ip), vehicle: saline",118 % of control
same,T/C,"dose: 12.5 mg/kg/injection, schedule: Q04DX002 (ip), vehicle: saline",108 % of control
Cc1c(O)c2c(c(O)c1Cc1cccc(C#N)c1)C(=O)c1ccccc1C2=O,T/C,[6],89 % of control
COc1cc2oc(-c3ccc(O)cc3O)c(CC=C(C)C)c(=O)c2c(O)c1/C=C/C(C)C,T/C,"dose: 1.56 mg/kg/injection, schedule: Q01DX009 (ip), vehicle: Klucel (hydroxypropylcellulose) (HPC)",107 % of control
same,T/C,"dose: 3.12 mg/kg/injection, schedule: Q01DX009 (ip), vehicle: Klucel (hydroxypropylcellulose) (HPC)",105 % of control
same,T/C,[8],100 % of control
same,T/C,[9],98 % of control
CN1CC(O)c2cc(N=NC(N)=O)c(O)cc21 (stereo unspecified),T/C,"dose: 50.0 mg/kg/injection, schedule: Q01DX005 (ip), vehicle: Klucel (hydroxypropylcellulose) (HPC)",96 % of control
same,T/C,"dose: 100.0 mg/kg/injection, schedule: Q01DX005 (ip), vehicle: Klucel (hydroxypropylcellulose) (HPC)",91 % of control
same,T/C,"dose: 200.0 mg/kg/injection, schedule: Q01DX005 (ip), vehicle: Klucel (hydroxypropylcellulose) (HPC)",108 % of control
O=C(NC(Cc1ccccc1)C(=O)NC(Cc1ccc(O)cc1)C(=O)O)OCc1ccccc1 (stereo not drawn) (Cbz-Phe-Tyr-OH; configuration not given here),T/C,"dose: 50.0 mg/kg/injection, schedule: Q01DX005 (ip), vehicle: saline + Tween-80 + alcohol",97 % of control
same,T/C,"dose: 100.0 mg/kg/injection, schedule: Q01DX005 (ip), vehicle: saline + Tween-80 + alcohol",95 % of control
same,T/C,"dose: 200.0 mg/kg/injection, schedule: Q01DX005 (ip), vehicle: saline + Tween-80 + alcohol",96 % of control
C=C1C(=O)O[C@H]2[C@H]1C[C@@H](O)[C@@]1(C)[C@@H](OC(=O)/C(C)=C/C)C[C@@H]3O[C@]3(C)[C@H]21,T/C,"dose: 9.0 mg/kg/injection, schedule: Q01DX005 (ip), vehicle: Klucel + Tween-80",105 % of control
same,T/C,"dose: 18.0 mg/kg/injection, schedule: Q01DX005 (ip), vehicle: Klucel + Tween-80",106 % of control
same,T/C,"dose: 36.0 mg/kg/injection, schedule: Q01DX005 (ip), vehicle: Klucel + Tween-80",105 % of control
same,T/C,"dose: 72.0 mg/kg/injection, schedule: Q01DX005 (ip), vehicle: Klucel + Tween-80",110 % of control
c1cc[c]([Sn][c]2ccccc2)cc1,T/C,"dose: 2.5 mg/kg/injection, schedule: Q01DX009 (ip), vehicle: saline",151 % of control
CCCCN(CCCC)C(=S)C(O)(c1ccccc1)c1ccccc1,T/C,[3],95 % of control
same,T/C,[4],91 % of control
same,T/C,[5],90 % of control
CCCCCCCN(CCCCCCC)CC(O)c1ccc2ccc3ccc(Cl)cc3c2c1 (stereo unspecified),T/C,[11],96 % of control
same,T/C,[12],96 % of control
same,T/C,[13],104 % of control
CCN(CC)CCNC1CC(C)CC(C)(C)C1 (stereo unspecified),T/C,[11],103 % of control
same,T/C,[12],101 % of control
Cc1ccc(NC(=S)N2CCCC2)cc1C,T/C,[3],100 % of control and 101 % of control
same,T/C,[4],109 % of control
same,T/C,[5],91 % of control and 98 % of control
Cc1ccc(S(=O)(=O)N/N=C2\C(=N\NS(=O)(=O)c3ccc(C)cc3)C3c4ccccc4C2c2ccccc23)cc1,T/C,[1],105 % of control
same,T/C,[2],96 % of control
same,T/C,[10],95 % of control
O=C(OC1(c2nccc3ccccc23)CCCCC1)c1ccccc1,T/C,"dose: 25.0 mg/kg/injection, schedule: Q01DX009 (ip), vehicle: Klucel (hydroxypropylcellulose) (HPC)",97 % of control
same,T/C,[3],93 % of control
same,T/C,"dose: 100.0 mg/kg/injection, schedule: Q01DX001 (ip), vehicle: Klucel (hydroxypropylcellulose) (HPC)",103 % of control
same,T/C,"dose: 200.0 mg/kg/injection, schedule: Q01DX001 (ip), vehicle: Klucel (hydroxypropylcellulose) (HPC)",94 % of control
same,T/C,"dose: 400.0 mg/kg/injection, schedule: Q01DX001 (ip), vehicle: Klucel (hydroxypropylcellulose) (HPC)",92 % of control
Cn1c(=O)c2c(nc(N3CCN(CCO)CC3)n2CC(O)CCl)n(C)c1=O (stereo unspecified),T/C,"dose: 50.0 mg/kg/injection, schedule: Q01DX005 (ip), vehicle: water",100 % of control
same,T/C,"dose: 100.0 mg/kg/injection, schedule: Q01DX005 (ip), vehicle: water",99 % of control
same,T/C,"dose: 200.0 mg/kg/injection, schedule: Q01DX005 (ip), vehicle: water",99 % of control
